This note sets out measurements from patent publication US20080139596A1, “Modulators of Hcv Replication” (priority 2004, published 2008).

For experiment [1], the system named is Con1 replicon carrying the adaptive mutation S2204I (SI). It counts as cell-based, Hepatitis C virus. Conditions: SI replicon (low amounts of hyperphosphorylated NS5A); 10A-IFN cells; 4 days; Cell-ELISA; read-out: IC50, inhibition of HCV replication. (In general: Replicon systems follow genome replication, usually without infectious particles.)
The subject of experiment [2] is Con1 replicon carrying the adaptive mutation A2199T (AT). It counts as cell-based, Hepatitis C virus. Conditions: AT replicon (high amounts of hyperphosphorylated NS5A); 10A-IFN cells; 4 days; Cell-ELISA; read-out: IC50, inhibition of HCV replication.
Experiment [3] has as its system replicon m17 (E1202G in NS3). It counts as cell-based. Conditions: 8 μM; 4 days of incubation; replicon m17 in 10A-IFN cells.
Experiment [4] has as its system subgenomic replicons with the synergistic mutation in NS3 (m17). As to the kind of experiment: HCV-specific RNA by real-time reverse transcription PCR (TaqMan) in 10A-IFN cells. It counts as cell-based, Hepatitis C virus. Conditions: 8 μM; 4 days; m17 replicon in 10A-IFN cells; quantitative PCR. The method, then: (§1) RNA was transcribed from the plasmids wt, wt-GAA, m17, SA, m17/SA and m17-GAA and electroporated into 10A-IFN cells. Cells were incubated for four days without or with 8 μM of Compound (1), Compound (2) or SB203580.
(§2) (A) HCV-specific RNA analysis using quantitative RT-PCR. Total cellular RNA was extracted and HCV-specific RNA was quantified as described in Materials and Methods. On the Y-axis is shown the fold-induction with respect to the DMSO control (black bar), Compound (1) (dark grey bar), Compound (2) (light grey bar) or SB203580 (dotted bar). Replicon RNA is indicated at the bottom of the figure.
(§3) Replicon RNA was extracted from selected clones either using the Qiagen RNAeasy minikit following manufacturer instructions or as described by Chomczynski et al., 1987. Anal. Biochem. 162, 156-159. TaqMan analysis was typically performed using 10 ng of RNA in a reaction mix (TaqMan Gold RT-PCR kit, Perkin Elmer Biosystems) either with HCV specific oligos/probe (as disclosed in published International application WO02/059321) or with human beta-actin specific oligos/probe (Pre-Developed TaqMan Assay Reagents, Endogenous Control Human beta-actin, Part Number 4310881E, Applied Biosystems). PCR was performed using a Perkin Elmer ABI PRISM 7700 under the following conditions: 30 minutes at 48° C. (the RT step), 10 minutes at 95° C. and 40 cycles: 15 seconds at 95° C. and 1 minute at 60° C. Quantitative calculations were obtained using the Comparative CT Method (described in User Bulletin #2, ABI PRISM 7700 Sequence Detection System, Applied Biosystem, December 1997) considering the level of GAPDH mRNA constant. All calculations of HCV RNA are expressed as fold difference over a specific control.
(§4) A similar experiment was carried out in order to detect HCV-specific RNA using real-time reverse transcription PCR amplification (FIG. 2A). […] Compound (1) induced replication of wt Con1 replicon 6-fold as measured by quantitative PCR, whereas induction of replication by the other compounds was below background (wt). […]
(In general: In qPCR the cycle at which signal appears reflects the starting amount.)

Experiment [5] relates to hyperphosphorylated NS5A (p58) in HB68 cells. As to the kind of experiment: NS5A hyperphosphorylation assay (radiolabelling, immunoprecipitation, SDS-PAGE). It counts as cell-based, Hepatitis C virus. The note with it: 5 μM; for formation of the hyperphosphorylated form of NS5A (p58) / NS5A phosphorylation: 35S-methionine or 32P-orthophosphate labelling. As to the method:
The presence of hyperphosphorylated NS5A (p58) was evaluated in Huh7-HB68 cells. Proteins were labeled either with ^35S-methionine (lanes 2-5) or with ^32P-orthophosphate (lanes 7-10) in the presence of DMSO (lanes 2 and 7) or with 5 μM of Compound (1) (lanes 3 and 8), Compound (2) (lanes 4 and 9) or SB203580 (lanes 5 and 10). After the radiolabelling, protein extract was prepared, NS5A was immunoprecipitated and proteins were loaded on a 7.5% SDS-PAGE and autoradiographed. The sizes of molecular weight marker proteins are indicated in lanes 1 and 6.
Inhibition of NS5A hyperphosphorylation in intact cells was measured by determining the amount of hyperphosphorylated NS5A (p58) in cells expressing HCV NS5A in the context of a polyprotein comprising at least NS3, NS4A, NS4B, and NS5A (Neddermann et al., J Virol 73, 9984-9991, 1999). […] HBI10 and HB68 are Huh-7 derived-cell lines described in WO2002/059321.
Hyperphosphorylated NS5A was detected as a protein that i) migrates with an apparent molecular weight of about 58 kDa in SDS PAGE, and ii) is immunoreactive with anti-NS5A antibodies. Thus, the amount of hyperphosphorylated NS5A was detected by immunoprecipitation of radioactively labeled proteins.
HBI10 or HB68 were cultured in Dulbecco's modified Eagle medium (DMEM) supplemented with 10% fetal bovine serum (FBS) in the presence of 0.8 mg/ml of G418 (Geneticin; Gibco/BRL). For starvation prior to radioactive protein labeling, minimal essential medium without methionine (Gibco/BRL) was used. For protein labeling, 100 μCi/ml of ^35S-labelled methionine (Promix, Amersham, Cat. No. SJQ0079, 1000 Ci/mmole) was added to the cells.
• 1. HBI10 or HB68 cells were grown to 80% confluency in 6-well plates. • 2. Compound to be tested, dissolved in DMSO at 100× concentration, was added to each well. • 3. One hour later, the medium was removed and replaced with Minimal Essential Medium without methionine. This step is omitted in the case of 32P-orthophosphate labeling. • 4. Compound to be tested, dissolved in DMSO at 100× concentration, was freshly added to each well. • 5. One hour later 100 μCi of ^35S-labelled methionine per ml of Minimal Essential Medium without methionine was added to each well for 35S-metabolic labeling together with the compound to be tested, dissolved in DMSO at 100× concentration. In the case of 32P-labelling, cells were washed once with Dulbecco's modified Eagle's medium without phosphate (ICN) and labeled for 4 hours in the same medium containing 500 μCi/ml of [32P]-orthophosphate (285.5 Ci/mg, NEN) together with the compound to be tested, dissolved in DMSO at 100× concentration. • 6. After 4 hours, cells were harvested from each well and individual cell extracts were prepared in 100 μl of cell lysis buffer. • 7. […]

Experiment [6] concerns wt Con1 replicon. It counts as cell-based. The note with it: 8 μM; 4 days of incubation; wt Con1 replicon in 10A-IFN cells.
Another experiment deals with wild type Con1 replicon. As to the kind of experiment: Beta-lactamase gene reporter assay (BLA-assay), replicon electroporated in 10A-IFN cells. The note with it: 8 μM, added two hours after electroporation, 4 days of incubation. It counts as cell-based, Hepatitis C virus. The method, then: The BLA-assay was performed after 4 days of incubation in the presence of the compounds to be tested according to Murray et al., J Virol 77, 2928-35, 2003. Briefly, medium was removed, and cells were stained for 90 min with CCF4-AM (Aurora Biosciences Corp.) in Dulbecco's modified Eagle's medium supplemented with 25 mM HEPES, pH 8.0. For quantitation of the fraction of cells harboring bla replicons, cells were photographed by using a digital charge-coupled device color camera and green and blue cells were counted. Another method for measuring beta-lactamase activity is using a fluorescence plate reader that quantitates the amount of green (530 nm) or blue (460 nm) fluorescence emitted by cells stimulated with light of 405 nm.
A subgenomic replicon was used in which the original neomycin phosphotransferase (neo) gene was replaced by the β-lactamase (bla) gene (WO2003089672 A1 and Murray et al., J Virol 77, 2928-2935, 2003). Cells actively replicating HCV express β-lactamase and show a fluorescent blue staining after incubation with a diffusible β-lactamase substrate (BLA-assay). Replicon RNA was electroporated in 10A-IFN cells and compounds were added at a concentration of 8 μM two hours after electroporation. The BLA-assay was performed after 4 days of incubation in the presence of the compounds to be tested according to Murray et al., J Virol 77, 2928-35, 2003. Briefly, medium was removed, and cells were stained for 90 min with CCF4-AM (Aurora Biosciences Corp.) in Dulbecco's modified Eagle's medium supplemented with 25 mM HEPES, pH 8.0. For quantitation of the fraction of cells harboring bla replicons, cells were photographed by using a digital charge-coupled device color camera and green and blue fluorescent cells were counted. Alternatively, fluorescence was measured by using a CytoFluor 4000 fluorescence plate reader.
The control compound SB203580 had no effect on HCV replication.
(In general: Reporter assays use an easily measured gene product as a stand-in for the process of interest.)

The subject of experiment [7] is wt Con1 replicon. In words: HCV-specific RNA by real-time reverse transcription PCR (TaqMan) in 10A-IFN cells. It counts as cell-based, Hepatitis C virus. Conditions: 8 μM; 4 days; wt Con1 replicon in 10A-IFN cells; quantitative PCR. The method, then: as §1, §2, §3, §4

Turning to `CN1CCC(c2nc(-c3ccncc3)c(-c3ccc(F)cc3)[nH]2)CC1` [Compound (2), 4-[5-(4-fluorophenyl)-2-(1-methylpiperidin-4-yl)-1H-imidazol-4-yl]pyridine], the IC50 in experiment [1] is 500 nM; in experiment [2] it was 5 µM. The “activation of replication (NS5A by immunoblot)” value in experiment [3] is “less potent activator”. For the same compound, the “fold-induction of HCV-RNA with respect to the DMSO control” value in experiment [4] came to 58 fold. For the same compound, the “formation of the hyperphosphorylated form of NS5A (p58) / NS5A phosphorylation” value (“formation … (p58) / NS5A phosphorylation” below) in experiment [5] was “inhibited the formation of the hyperphosphorylated form of NS5A”. In the experiment with wt Con1 replicon [6], the “presence of NS5A by immunoblot” value was “no protein was visible”. Further, the “HCV replication (fluorescent blue cells, BLA-assay)” value (“HCV replication” below) in the experiment with wild type Con1 replicon is “resulted in the production of fluorescent blue cells”.

As for `CNc1nccc(-c2[nH]c(C3CCNCC3)nc2-c2cccc(C(F)(F)F)c2)n1` [Compound (1), N-methyl-4-{2-piperidin-4-yl-4-[3-(trifluoromethyl)phenyl]-1H-imidazol-5-yl}pyrimid-2-amine], the IC50 in experiment [1] is 500 nM; in experiment [2], 5 µM. Further, in experiment [3], the “activation of replication (NS5A by immunoblot)” value was “more potent”. Moreover, the results for the “fold-induction of HCV-RNA with respect to the DMSO control” value (in experiment [4]; with wt Con1 replicon [7]) were 312 fold and 6 fold, respectively. Further, the “formation … (p58) / NS5A phosphorylation” value in experiment [5] is listed as “inhibited the formation of the hyperphosphorylated form of NS5A”. In the experiment with wt Con1 replicon [6], the “presence of NS5A by immunoblot” value is recorded as “NS5A could be detected”. For the same compound, the “HCV replication” value in the experiment with wild type Con1 replicon was “resulted in the production of fluorescent blue cells”.

Consider `C[S+]([O-])c1ccc(-c2nc(-c3ccncc3)c(-c3ccc(F)cc3)[nH]2)cc1` (stereo not shown) [SB203580, reference compound], for which, in experiment [5], the NS5A expression result is on record as “no effect” and the “formation … (p58) / NS5A phosphorylation” value is “no effect”. For the same compound, the “presence of NS5A by immunoblot” value in the experiment with wt Con1 replicon [6] is “no NS5A was visible”. Besides, the “HCV replication” value with wild type Con1 replicon was “no effect”.

In general, IC50 refers to the concentration that inhibits the measured activity by half.
